Reference: ChEMBL document CHEMBL3608278 (J Med Chem, 2015)

How the values were obtained:
[1] = target: T1, Potassium voltage-gated channel subfamily A member 3 (Homo sapiens, UniProt P22001); format: cell-based, CHO-K1
[2] = target: T1, Potassium voltage-gated channel subfamily A member 3; experiment: cell-based; design: species or system Blood
[3] = target: T1, Potassium voltage-gated channel subfamily A member 3; design: species or system Blood

T1 sequence (P22001 whole entry): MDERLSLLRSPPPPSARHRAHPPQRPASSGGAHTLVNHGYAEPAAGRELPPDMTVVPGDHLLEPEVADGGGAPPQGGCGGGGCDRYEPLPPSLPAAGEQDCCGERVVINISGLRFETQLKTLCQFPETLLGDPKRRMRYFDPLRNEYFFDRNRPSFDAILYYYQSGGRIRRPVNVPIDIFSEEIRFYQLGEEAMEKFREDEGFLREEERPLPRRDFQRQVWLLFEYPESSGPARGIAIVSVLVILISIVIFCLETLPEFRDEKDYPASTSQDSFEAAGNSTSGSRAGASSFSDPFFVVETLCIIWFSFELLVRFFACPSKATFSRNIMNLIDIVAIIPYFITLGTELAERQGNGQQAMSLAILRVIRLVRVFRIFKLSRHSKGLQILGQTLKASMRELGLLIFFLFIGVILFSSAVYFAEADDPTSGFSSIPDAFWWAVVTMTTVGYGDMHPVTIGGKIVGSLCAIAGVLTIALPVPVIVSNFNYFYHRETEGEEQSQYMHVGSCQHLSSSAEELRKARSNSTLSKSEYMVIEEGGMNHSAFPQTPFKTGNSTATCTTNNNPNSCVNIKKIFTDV

Row | SMILES | IC50 [1] | IC50 [2] | IC50 [3]
1 | CC[C@H](C)[C@@H]1NC(=O)[C@@H](NC(=O)[C@H](CO)NC(=O)[C@@H](N)CCCNC(=N)N)CSSC[C@@H](C(=O)O)NC(=O)[C@H]([C@@H](C)O)NC(=O)CNC(=O)[C@@H]2CSSC[C@@H]3NC(=O)[C@H](CCC(N)=O)NC(=O)[C@H](Cc4ccccc4)NC(=O)[C@H](C)NC(=O)[C@H]([C@@H](C)O)NC(=O)[C@H](CSSC[C@H](NC(=O)[C@H](Cc4ccccc4)NC(=O)[C@H](CO)NC(=O)[C@H](CC(C)C)NC(=O)[C@H](CCCNC(=N)N)NC(=O)[C@H](C)NC(=O)[C@H](CCCCN)NC(=O)[C@H](CCSC)NC(=O)[C@H](CO)NC(=O)[C@H](Cc4cnc[nH]4)NC(=O)[C@H](CCCCN)NC3=O)C(=O)N[C@@H](CCCNC(=N)N)C(=O)N[C@@H](CCCCN)C(=O)N[C@@H]([C@@H](C)O)C(=O)N2)NC(=O)[C@H](CCCNC(=N)N)NC(=O)[C@H](CO)NC(=O)[C@H](CCCCN)NC(=O)[C@@H]2CCCN2C(=O)[C@H]([C@@H](C)CC)NC(=O)[C@H]([C@@H](C)O)NC(=O)[C@H](CC(=O)O)NC1=O | 0.261 nM | 3.09 nM | 5.67 nM
2 | CC[C@H](C)[C@@H]1NC(=O)[C@@H](NC(=O)[C@H](CO)NC(=O)[C@@H](N)CCCNC(=N)N)CSSC[C@@H](C(=O)O)NC(=O)[C@H]([C@@H](C)O)NC(=O)CNC(=O)[C@@H]2CSSC[C@@H]3NC(=O)[C@H](CCC(N)=O)NC(=O)[C@H](Cc4ccccc4)NC(=O)[C@H](C)NC(=O)[C@H]([C@@H](C)O)NC(=O)[C@H](CSSC[C@H](NC(=O)[C@H](C)NC(=O)[C@H](CO)NC(=O)[C@H](CC(C)C)NC(=O)[C@H](CCCNC(=N)N)NC(=O)[C@H](Cc4ccc(O)cc4)NC(=O)[C@H](CCCCN)NC(=O)[C@H](CCSC)NC(=O)[C@H](CO)NC(=O)[C@H](Cc4cnc[nH]4)NC(=O)[C@H](CCCCN)NC3=O)C(=O)N[C@@H](CCCNC(=N)N)C(=O)N[C@@H](CCCCN)C(=O)N[C@@H]([C@@H](C)O)C(=O)N2)NC(=O)[C@H](CCCNC(=N)N)NC(=O)[C@H](CO)NC(=O)[C@H](CCCCN)NC(=O)[C@@H]2CCCN2C(=O)[C@H]([C@@H](C)CC)NC(=O)[C@H]([C@@H](C)O)NC(=O)[C@H](CC(=O)O)NC1=O | 0.275 nM | 1.5 nM | 8.01 nM
3 | CC[C@H](C)[C@@H]1NC(=O)[C@@H](NC(=O)[C@H](CO)NC(=O)[C@@H](N)CCCNC(=N)N)CSSC[C@@H](C(=O)O)NC(=O)[C@H]([C@@H](C)O)NC(=O)CNC(=O)[C@@H]2CSSC[C@@H]3NC(=O)[C@H](CCC(N)=O)NC(=O)[C@H](Cc4ccccc4)NC(=O)[C@H](C)NC(=O)[C@H]([C@@H](C)O)NC(=O)[C@H](CSSC[C@H](NC(=O)[C@H](Cc4ccccc4)NC(=O)[C@H](CO)NC(=O)[C@H](CC(C)C)NC(=O)[C@H](CCCNC(=N)N)NC(=O)[C@H](Cc4ccc(O)cc4)NC(=O)[C@H](CCCCN)NC(=O)[C@H](CCSC)NC(=O)[C@H](CO)NC(=O)[C@H](Cc4cnc[nH]4)NC(=O)[C@H](CCCCN)NC3=O)C(=O)N[C@@H](CCCNC(=N)N)C(=O)N[C@@H](C)C(=O)N[C@@H]([C@@H](C)O)C(=O)N2)NC(=O)[C@H](CCCNC(=N)N)NC(=O)[C@H](CO)NC(=O)[C@H](CCCCN)NC(=O)[C@@H]2CCCN2C(=O)[C@H]([C@@H](C)CC)NC(=O)[C@H]([C@@H](C)O)NC(=O)[C@H](CC(=O)O)NC1=O | 0.173 nM | 0.186 nM | 0.308 nM
4 | CC[C@H](C)[C@@H]1NC(=O)[C@@H](NC(=O)[C@H](CO)NC(=O)[C@@H](N)CCCNC(=N)N)CSSC[C@@H](C(=O)O)NC(=O)[C@H](C)NC(=O)CNC(=O)[C@@H]2CSSC[C@@H]3NC(=O)[C@H](CCC(N)=O)NC(=O)[C@H](Cc4ccccc4)NC(=O)[C@H](C)NC(=O)[C@H]([C@@H](C)O)NC(=O)[C@H](CSSC[C@H](NC(=O)[C@H](Cc4ccccc4)NC(=O)[C@H](CO)NC(=O)[C@H](CC(C)C)NC(=O)[C@H](CCCNC(=N)N)NC(=O)[C@H](Cc4ccc(O)cc4)NC(=O)[C@H](CCCCN)NC(=O)[C@H](CCSC)NC(=O)[C@H](CO)NC(=O)[C@H](Cc4cnc[nH]4)NC(=O)[C@H](CCCCN)NC3=O)C(=O)N[C@@H](CCCNC(=N)N)C(=O)N[C@@H](CCCCN)C(=O)N[C@@H]([C@@H](C)O)C(=O)N2)NC(=O)[C@H](CCCNC(=N)N)NC(=O)[C@H](CO)NC(=O)[C@H](CCCCN)NC(=O)[C@@H]2CCCN2C(=O)[C@H]([C@@H](C)CC)NC(=O)[C@H]([C@@H](C)O)NC(=O)[C@H](CC(=O)O)NC1=O | 0.133 nM | 0.053 nM | 0.083 nM
5 | CC[C@H](C)[C@@H]1NC(=O)[C@@H](NC(=O)[C@H](Cc2cccc3ccccc23)NC(=O)[C@@H](N)CCCNC(=N)N)CSSC[C@@H](C(=O)O)NC(=O)[C@H]([C@@H](C)O)NC(=O)CNC(=O)[C@@H]2CSSC[C@@H]3NC(=O)[C@H](CCC(N)=O)NC(=O)[C@H](Cc4ccccc4)NC(=O)[C@H](C)NC(=O)[C@H]([C@@H](C)O)NC(=O)[C@H](CSSC[C@H](NC(=O)[C@H](Cc4ccccc4)NC(=O)[C@H](CO)NC(=O)[C@H](CC(C)C)NC(=O)[C@H](CCCNC(=N)N)NC(=O)[C@H](Cc4ccc(O)cc4)NC(=O)[C@H](CCCCN)NC(=O)[C@H](CCSC)NC(=O)[C@H](CO)NC(=O)[C@H](Cc4cnc[nH]4)NC(=O)[C@H](CCCCN)NC3=O)C(=O)N[C@@H](CCCNC(=N)N)C(=O)N[C@@H](CCCCN)C(=O)N[C@@H]([C@@H](C)O)C(=O)N2)NC(=O)[C@H](CCCNC(=N)N)NC(=O)[C@H](CO)NC(=O)[C@H](CCCCN)NC(=O)[C@@H]2CCCN2C(=O)[C@H]([C@@H](C)CC)NC(=O)[C@H]([C@@H](C)O)NC(=O)[C@H](CC(=O)O)NC1=O | 0.257 nM | 0.223 nM | 0.258 nM
6 | CC[C@H](C)[C@@H]1NC(=O)[C@H]([C@@H](C)O)NC(=O)[C@H](CC(=O)O)NC(=O)[C@H](Cc2cccc3ccccc23)NC(=O)[C@@H](NC(=O)[C@H](CO)NC(=O)[C@@H](N)CCCNC(=N)N)CSSC[C@@H](C(=O)O)NC(=O)[C@H]([C@@H](C)O)NC(=O)CNC(=O)[C@@H]2CSSC[C@@H]3NC(=O)[C@H](CCC(N)=O)NC(=O)[C@H](Cc4ccccc4)NC(=O)[C@H](C)NC(=O)[C@H]([C@@H](C)O)NC(=O)[C@H](CSSC[C@H](NC(=O)[C@H](Cc4ccccc4)NC(=O)[C@H](CO)NC(=O)[C@H](CC(C)C)NC(=O)[C@H](CCCNC(=N)N)NC(=O)[C@H](Cc4ccc(O)cc4)NC(=O)[C@H](CCCCN)NC(=O)[C@H](CCSC)NC(=O)[C@H](CO)NC(=O)[C@H](Cc4cnc[nH]4)NC(=O)[C@H](CCCCN)NC3=O)C(=O)N[C@@H](CCCNC(=N)N)C(=O)N[C@@H](CCCCN)C(=O)N[C@@H]([C@@H](C)O)C(=O)N2)NC(=O)[C@H](CCCNC(=N)N)NC(=O)[C@H](CO)NC(=O)[C@H](CCCCN)NC(=O)[C@@H]2CCCN2C1=O | 0.154 nM | 0.274 nM | 0.318 nM
